From US20220184092A1, “ANTI-VIRAL ACTIVITY OF VPS34 INHIBITORS” (Deciphera Pharmaceuticals, LLC, priority 2020, published 2022)
Like-named read-outs stand apart in the source and are kept apart here.

Key:
SARS CoV-2 = SARS CoV-2 CPE assay for antiviral activity in Vero E6 host cells; format: cell-based, coronavirus USA_WA1/2020 SARS CoV-2; conditions: read-out: IC50 for inhibition of SARS CoV-2 mediated cell killing
in vitro = format: cell-based; conditions: African green monkey
Method: (§1) Compound cytotoxicity (CC50) is assessed in a BSL-2 counter screen as follows: Host cells in media are added in 25 μl aliquots (4000 cells/well) to each well of assay ready plates prepared with test compounds as above. […] DMSO is maintained at a constant concentration for all wells (0.3%) as dictated by the dilution factor of stock test compound concentrations. After incubating plates at 37° C./5% CO2 and 90% humidity for 72 hours, 30 μl Cell Titer-Glo (Promega) is added to each well. Luminescence is read using a BMG PHERAstar plate reader following incubation at room temperature for 10 minutes to measure cell viability.

Vero E6 cells = test: in vitro; format: cell-based; conditions: African green monkey, 72 h
Method: as §1

SARS-CoV-2 = test: microbe, parasite or virus in culture; format: cell-based; conditions: Severe acute respiratory syndrome coronavirus 2, A549, 48 h; read-out: IC50 for inhibition of SARS CoV-2 mediated cell killing
[1] = Vero C1008, Vero E6 cells, CPE assay, 72 hours, 10-point dose response, high concentration 15 μM

Structure (SMILES)	IC50 (SARS CoV-2; [1]) [µM]	CC50 at 72 h (in vitro) [µM]	CC50 (Vero E6 cells) [µM]	IC50 (SARS-CoV-2) [µM]	IC50 (SARS CoV-2; Vero C1008, 72 h) [µM]
C[C@@H]1COCCN1c1cc(-c2ccccc2C(F)(F)F)[nH]c(=O)c1 [Compound 1]	3.91	> 30	> 30	2.05	
C[C@@H]1COCCN1c1cc(-c2ccccc2Cl)[nH]c(=O)c1 [Compound 2]	2.76	> 30	> 30	0.83	
Cc1cscc1-c1cc(N2CCOC[C@H]2C)cc(=O)[nH]1 [Compound 3]		> 10	> 10	6.39	> 10
